# ChEMBL document CHEMBL3769371, “1-[(2E)-3-Phenylprop-2-enoyl]-1H-benzimidazoles as anticancer agents: synthesis, crystal structure analysis and binding studies of the most potent anticancer molecule with serum albumin” (Medchemcomm, 2015)
# How the values were obtained:
# [1] = Cytotoxicity against human SNB75 cells assessed as cell growth at 10^-5 M after 48 hrs by SRB assay; assay type: functional; conditions: SNB-75, 48 h, read-out: Activity
# [2] = Antiproliferative activity against human SKOV3 cells at 10'5 M; assay type: functional, SK-OV-3
# Albumin [3] = biological target: T1, Albumin (Homo sapiens, UniProt P02768); test: Binding affinity to human serum albumin at 0.25 uM at 303 K by fluorescence microscopic analysis in the presence of Zn2+; assay type: ADME; conditions: isolated protein
# MDA-MB-435 = test: Cytotoxicity against human MDA-MB-435 cells assessed as cell growth at 10^-5 M after 48 hrs by SRB assay; assay type: functional; conditions: MDA-MB-435, 48 h, read-out: Activity
# [4] = Cytotoxicity against human OVCAR4 cells assessed as cell growth at 10^-5 M after 48 hrs by SRB assay; assay type: functional; conditions: OVCAR-4, 48 h, read-out: Activity
# [5] = Antiproliferative activity against human DU145 cells at 10'5 M; assay type: functional, DU-145
# T47D = test: Cytotoxicity against human T47D cells assessed as cell growth at 10^-5 M after 48 hrs by SRB assay; assay type: functional; conditions: read-out: Activity
# NCI-H322M = test: Cytotoxicity against human NCI-H322M cells after 48 hrs by SRB assay; assay type: functional
# Albumin [6] = biological target: T1, Albumin; test: Binding affinity to human serum albumin at 0.25 to 2 uM at 298 K by fluorescence microscopic analysis; assay type: ADME; conditions: isolated protein
# [7] = Cytotoxicity against human UACC62 cells assessed as cell growth at 10^-5 M after 48 hrs by SRB assay; assay type: functional; conditions: UACC-62, 48 h, read-out: Activity
# SK-MEL-28 = test: Cytotoxicity against human SK-MEL-28 cells assessed as cell growth at 10^-5 M after 48 hrs by SRB assay; assay type: functional; conditions: SK-MEL-28, 48 h, read-out: Activity
# [8] = Antiproliferative activity against human MOLT4 cells at 10'5 M; assay type: functional, MOLT-4
# 786-0 = test: Cytotoxicity against human 786-0 cells after 48 hrs by SRB assay; assay type: functional; conditions: 786-0, 48 h
# [9] = Cytotoxicity against human LOXIMVI cells assessed as cell growth at 10^-5 M after 48 hrs by SRB assay; assay type: functional; conditions: LOX IMVI, read-out: Activity
# [10] = Antiproliferative activity against human Hs 578T cells at 10'5 M; assay type: functional
# [11] = Antiproliferative activity against human PC3 cells at 10'5 M; assay type: functional, PC-3
# NCI-H522 [12] = test: Cytotoxicity against human NCI-H522 cells assessed as cell growth at 10^-5 M after 48 hrs by SRB assay; assay type: functional; conditions: NCI-H522, 48 h, read-out: Activity
# A549 = test: Cytotoxicity against human A549 cells assessed as cell growth at 10^-5 M after 48 hrs by SRB assay; assay type: functional; conditions: A549, 48 h, read-out: Activity
# [13] = Cytotoxicity against human UACC257 cells after 48 hrs by SRB assay; assay type: functional; conditions: UACC-257, 48 h
# [14] = Cytotoxicity against human Hs 578T cells assessed as cell growth at 10^-5 M after 48 hrs by SRB assay; assay type: functional; conditions: read-out: Activity
# [15] = Cytotoxicity against human HCT116 cells assessed as cell growth at 10^-5 M after 48 hrs by SRB assay; assay type: functional; conditions: HCT-116, 48 h, read-out: Activity
# [16] = Cytotoxicity against human OVCAR3 cells assessed as cell growth at 10^-5 M after 48 hrs by SRB assay; assay type: functional; conditions: OVCAR-3, 48 h, read-out: Activity
# HT-29 = test: Cytotoxicity against human HT-29 cells after 48 hrs by SRB assay; assay type: functional; conditions: HT-29, 48 h
# K562 = test: Antiproliferative activity against human K562 cells at 10'5 M; assay type: functional
# KM12 = test: Cytotoxicity against human KM12 cells assessed as cell growth at 10^-5 M after 48 hrs by SRB assay; assay type: functional; conditions: KM12, 48 h, read-out: Activity
# [17] = Cytotoxicity against human UACC257 cells assessed as cell growth at 10^-5 M after 48 hrs by SRB assay; assay type: functional; conditions: UACC-257, 48 h, read-out: Activity
# MDA-MB-468 = test: Cytotoxicity against human MDA-MB-468 cells assessed as cell growth at 10^-5 M after 48 hrs by SRB assay; assay type: functional; conditions: MDA-MB-468, 48 h, read-out: Activity
# ACHN = test: Cytotoxicity against human ACHN cells assessed as cell growth at 10^-5 M after 48 hrs by SRB assay; assay type: functional; conditions: read-out: Activity
# MDA-MB-231 = test: Cytotoxicity against human MDA-MB-231 cells after 48 hrs by SRB assay; assay type: functional; conditions: MDA-MB-231, 48 h
# CCRF-CEM = test: Cytotoxicity against human CCRF-CEM cells after 48 hrs by SRB assay; assay type: functional
# [18] = Cytotoxicity against human SF295 cells assessed as cell growth at 10^-5 M after 48 hrs by SRB assay; assay type: functional; conditions: SF-295, 48 h, read-out: Activity
# Albumin [19] = biological target: T1, Albumin; test: Binding affinity to human serum albumin at 0.25 uM at 303 K by fluorescence microscopic analysis in the presence of K+; assay type: ADME; conditions: isolated protein
# [20] = Cytotoxicity against human UO31 cells assessed as cell growth at 10^-5 M after 48 hrs by SRB assay; assay type: functional; conditions: UO-31, 48 h, read-out: Activity
# [21] = Cytotoxicity against human NCI-ADR-RES cells assessed as cell growth at 10^-5 M after 48 hrs by SRB assay; assay type: functional; conditions: read-out: Activity
# NCI-H522 [22] = test: Cytotoxicity against human NCI-H522 cells after 48 hrs by SRB assay; assay type: functional; conditions: NCI-H522, 48 h
# [23] = Cytotoxicity against human SKOV3 cells assessed as cell growth at 10^-5 M after 48 hrs by SRB assay; assay type: functional; conditions: SK-OV-3, 48 h, read-out: Activity
# [24] = Cytotoxicity against human OVCAR5 cells after 48 hrs by SRB assay; assay type: functional; conditions: OVCAR-5, 48 h, read-out: LC50 (the source's name)
# [25] = Cytotoxicity against human SNB19 cells assessed as cell growth at 10^-5 M after 48 hrs by SRB assay; assay type: functional; conditions: SNB-19, 48 h, read-out: Activity
# [26] = Cytotoxicity against human IGROV1 cells after 48 hrs by SRB assay; assay type: functional; conditions: IGROV-1, 48 h
# [27] = Cytotoxicity against human OVCAR4 cells after 48 hrs by SRB assay; assay type: functional; conditions: OVCAR-4, 48 h
# Albumin [28] = biological target: T1, Albumin; test: Binding affinity to human serum albumin at 0.25 uM at 303 K by fluorescence microscopic analysis in the presence of Mn2+; assay type: ADME; conditions: isolated protein
# [29] = read-out: LC50 (the source's name)
# T1 sequence (P02768 whole entry): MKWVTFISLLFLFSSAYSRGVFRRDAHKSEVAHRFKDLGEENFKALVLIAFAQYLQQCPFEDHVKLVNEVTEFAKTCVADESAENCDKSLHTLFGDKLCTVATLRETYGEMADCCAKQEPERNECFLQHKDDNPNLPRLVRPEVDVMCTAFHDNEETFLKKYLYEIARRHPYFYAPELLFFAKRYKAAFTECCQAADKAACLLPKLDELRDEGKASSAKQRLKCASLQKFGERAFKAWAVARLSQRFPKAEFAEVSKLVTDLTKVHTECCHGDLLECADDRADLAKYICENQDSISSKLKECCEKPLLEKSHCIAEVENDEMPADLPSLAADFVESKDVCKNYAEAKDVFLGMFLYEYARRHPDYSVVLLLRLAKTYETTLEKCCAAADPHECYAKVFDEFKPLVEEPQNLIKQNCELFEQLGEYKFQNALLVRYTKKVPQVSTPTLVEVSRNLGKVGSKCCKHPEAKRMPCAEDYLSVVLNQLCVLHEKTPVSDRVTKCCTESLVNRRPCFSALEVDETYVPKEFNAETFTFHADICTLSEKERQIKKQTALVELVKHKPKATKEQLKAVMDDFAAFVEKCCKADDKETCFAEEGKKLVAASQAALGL
smiles,measurement,setting,value
O=C(/C=C/c1ccccc1)n1c(-c2ccc(Cl)cc2)nc2ccccc21,growth at 10 µM,[1],18.1%
same,growth inhibition (GI),[2],76.05%
same,K,Albumin [3],2.26 ×10³ /mol
same,growth at 10 µM,MDA-MB-435,-44.3%
same,growth at 10 µM,[4],30%
same,growth inhibition (GI),[5],88.87%
same,growth at 10 µM,T47D,-4.25%
same,GI50,NCI-H322M,1.91 µM
same,TGI,NCI-H322M,4.89 µM
same,CC50,NCI-H322M; [29],20 µM
same,K,Albumin [6],3.2 ×10⁴ /mol
same,growth at 10 µM,[7],-84.7%
same,growth at 10 µM,SK-MEL-28,-65.4%
same,growth inhibition (GI),[8],78.07%
same,GI50,786-0,2.43 µM
same,TGI,786-0,5.71 µM
same,CC50,786-0; [29],18 µM
same,growth at 10 µM,[9],-82.9%
same,growth inhibition (GI),[10],80.03%
same,growth inhibition (GI),[11],93.91%
same,growth at 10 µM,NCI-H522 [12],-72.4%
same,growth at 10 µM,A549,-4.99%
same,GI50,[13],1.64 µM
same,TGI,[13],3.12 µM
same,CC50,[13]; [29],5.93 µM
same,growth at 10 µM,[14],20%
same,growth at 10 µM,[15],-71.5%
same,growth at 10 µM,[16],-57.2%
same,GI50,HT-29,1.34 µM
same,TGI,HT-29,7.05 µM
same,CC50,HT-29; [29],29.8 µM
same,growth inhibition (GI),K562,60.22%
same,growth at 10 µM,KM12,-62.9%
same,growth at 10 µM,[17],-64.4%
same,growth at 10 µM,MDA-MB-468,-6.61%
same,growth at 10 µM,ACHN,-49.9%
same,GI50,MDA-MB-231,1.88 µM
same,TGI,MDA-MB-231,5.18 µM
same,CC50,MDA-MB-231; [29],25.4 µM
same,GI50,CCRF-CEM,0.73 µM
same,TGI,CCRF-CEM,3.45 µM
same,CC50,CCRF-CEM; [29],> 100 µM
same,growth at 10 µM,[18],-52%
same,K,Albumin [19],4.21 ×10³ /mol
same,growth at 10 µM,[20],-39%
same,growth at 10 µM,[21],10.8%
same,GI50,NCI-H522 [22],1.53 µM
same,TGI,NCI-H522 [22],3.5 µM
same,CC50,NCI-H522 [22]; [29],8.04 µM
same,growth at 10 µM,[23],23.9%
same,CC50,[24],49.7 µM
same,growth at 10 µM,[25],41.1%
same,GI50,[26],1.27 µM
same,TGI,[26],2.88 µM
same,CC50,[26]; [29],6.53 µM
same,GI50,[27],1.11 µM
same,TGI,[27],2.64 µM
same,CC50,[27]; [29],6.29 µM
same,K,Albumin [28],3.85 ×10³ /mol
